Assay results published in paper PMC9718554, “Discovery of a fragment hit compound targeting D-Ala:D-Ala ligase of bacterial peptidoglycan biosynthesis” (Journal of Enzyme Inhibition and Medicinal Chemistry, 2022).
Where two headings read alike, the source gives them in different places.

Legend:
[1] = Solubility at tested concentrations (fragment library screening); type: physicochemical
Text: Supplement IENZ_A_2149745_SM2502.zip/DDlB_CDR05_SI_20221103.xlsx, sheet "Fragment library screening" | column: Solubility at tested concentrations

[2] = target: T1, E. coli DdlB enzyme (D-alanine:D-alanine ligase) (Escherichia coli, UniProt P07862); experiment: biochemical; conditions: for remaining activity at 1900 µM: tested concentration 1.9 mM; for remaining activity at 2000 µM: tested concentration 2.0 mM; for remaining activity at 2100 µM: tested concentration 2.1 mM; for remaining activity at 1700 µM: tested concentration 1.7 mM; for remaining activity at 2300 µM: tested concentration 2.3 mM; for remaining activity at 1800 µM: tested concentration 1.8 mM; for remaining activity at 2200 µM: tested concentration 2.2 mM; for remaining activity at 2400 µM: tested concentration 2.4 mM; for remaining activity at 2500 µM: tested concentration 2.5 mM
T1 construct: made in house; host or cells: E. coli

[3] = residual activity, read-out: DdlB RA
[4] = residual activity of DdlB, fragment library screening, read-out: DdlB RA
[5] = fragment library screening, read-out: DdlB RA

## Oc1cccc(/C=C/c2ccc3cccc(O)c3n2)c1 [Compound 5617-0440]
[1]; tested concentration 1.9 mM
  Solubility at tested concentrations: not soluble
[2]; [3]
  remaining activity at 1900 µM: 55%

## COc1ccc(-c2ccc(C(=O)O)c(=O)[nH]2)cc1 [Compound D724-1039]
[1]; tested concentration 2.0 mM
  Solubility at tested concentrations: not soluble
[2]; [3]
  remaining activity at 2000 µM: 76%

## O=C(O)c1ccc(N2Cc3ccccc3C2)cc1O [Compound 8005-9285]
[1]; tested concentration 2.0 mM
  Solubility at tested concentrations: not soluble
[2]; [3]
  remaining activity at 2000 µM: 61%

## Oc1cccc2c1nnc1nc(-c3cccnc3)nn12 [Compound Y021-2955]
[1]; tested concentration 1.9 mM
  Solubility at tested concentrations: not soluble
[2]; [3]
  remaining activity at 1900 µM: 45%

## O=C(Cc1ccccc1[N+](=O)[O-])Nc1nnc[nH]1 [Compound 7882-1936]
[1]; tested concentration 2.0 mM
  Solubility at tested concentrations: not soluble
[2]; [3]
  remaining activity at 2000 µM: 118%

## CCC(C)(C)Nc1c(-c2ccccc2)c(=O)c1=O [Compound E470-0411]
[1]; tested concentration 2.1 mM
  Solubility at tested concentrations: not soluble
[2]; read-out: DdlB RA
  remaining activity at 2100 µM: 48%

## CCOc1ccc2c(c1)cc(C(=O)NC)n2C [Compound D291-1849]
[1]; tested concentration 2.6 mM
  Solubility at tested concentrations: not soluble
[2]; tested concentration 2.6 mM, read-out: DdlB RA
  remaining activity at 2600 µM: 95%

## Cc1cc(N)nn1CC(=O)O [Compound Y504-8763]
[1]; tested concentration 3.2 mM
  Solubility at tested concentrations: not soluble
[2]; tested concentration 3.2 mM, read-out: DdlB RA
  remaining activity at 3200 µM: 57%

## O=C(N/N=C/c1ccc2cccc(O)c2n1)c1ccncc1 [Compound 8006-6830]
[1]; tested concentration 1.7 mM
  Solubility at tested concentrations: not soluble
[2]; [3]
  remaining activity at 1700 µM: 71%

## N#Cc1c2c([nH]c(=O)c1C(=O)O)CCCC2 [Compound 8020-6318]
[1]; tested concentration 2.3 mM
  Solubility at tested concentrations: not soluble
[2]; [3]
  remaining activity at 2300 µM: 93%

## Cc1cccc(CNC(=O)c2ccc3cccc(O)c3n2)c1 [Compound C066-5543]
[1]; tested concentration 1.7 mM
  Solubility at tested concentrations: not soluble
[2]; [3]
  remaining activity at 1700 µM: 94%

## Oc1cccc2ccc(Nc3ccccn3)nc12 [Compound 0422-0008]
[1]; tested concentration 2.1 mM
  Solubility at tested concentrations: not soluble
[2]; [3]
  remaining activity at 2100 µM: 31%

## O=C(O)c1cnc2c(OC(F)(F)F)cccc2c1O [Compound Y042-3118]
[1]; tested concentration 1.8 mM
  Solubility at tested concentrations: not soluble
[2]; [3]
  remaining activity at 1800 µM: 88%

## O=C(Cc1ccc(Cl)cc1)Nc1nnc[nH]1 [Compound 7881-1517]
[1]; tested concentration 2.1 mM
  Solubility at tested concentrations: not soluble
[2]; [3]
  remaining activity at 2100 µM: 79%

## Cc1ccc(-c2nc(O)nc3ccccc23)cc1 [Compound 3740-0006]
[1]; tested concentration 2.1 mM
  Solubility at tested concentrations: not soluble
[2]; [3]
  remaining activity at 2100 µM: 83%

## Oc1ccccc1/N=C/c1ccc2cccc(O)c2n1 [Compound 0422-0036]
[1]; tested concentration 1.9 mM
  Solubility at tested concentrations: not soluble
[2]; [3]
  remaining activity at 1900 µM: 79%

## CC(C)c1ccc(C(=O)Nc2nnc[nH]2)cc1 [Compound Y200-5752]
[1]; tested concentration 2.2 mM
  Solubility at tested concentrations: not soluble
[2]; [3]
  remaining activity at 2200 µM: 52%

## COc1ccc(-c2ncc(C(=O)O)c(=O)[nH]2)cc1OC [Compound 8020-2710]
[1]; tested concentration 1.8 mM
  Solubility at tested concentrations: not soluble
[2]; [3]
  remaining activity at 1800 µM: 91%

## Oc1cc(-c2ccccc2)cc2c1nnc1ncnn12 [Compound Y021-2954]
[1]; tested concentration 1.9 mM
  Solubility at tested concentrations: not soluble
[2]; [3]
  remaining activity at 1900 µM: 79%

## CCc1cccc(NC(=O)c2ccc3cccc(O)c3n2)c1 [Compound G900-0169]
[1]; tested concentration 1.7 mM
  Solubility at tested concentrations: not soluble
[2]; read-out: DdlB RA
  remaining activity at 1700 µM: 69%

## O=C(NC1CCCCC1)c1ccc2cccc(O)c2n1 [Compound G900-0104]
[1]; tested concentration 1.8 mM
  Solubility at tested concentrations: not soluble
[2]; [3]
  remaining activity at 1800 µM: 80%

## Cc1c(Cl)ccc(S(N)(=O)=O)c1Cl [Compound 8011-1291]
[1]; tested concentration 2.1 mM
  Solubility at tested concentrations: not soluble
[2]; read-out: DdlB RA
  remaining activity at 2100 µM: 69%

## O=C(Cc1c[nH]c2ncccc12)NCC1CCCCC1 [Compound M508-0609]
[1]; tested concentration 1.8 mM
  Solubility at tested concentrations: not soluble
[2]; [3]
  remaining activity at 1800 µM: 92%

## O=[N+]([O-])c1cc(Cl)c(O)c2ncccc12 [Compound 8017-0599]
[1]; tested concentration 2.2 mM
  Solubility at tested concentrations: not soluble
[2]; [3]
  remaining activity at 2200 µM: 55%

## O=C(N/N=C/c1ccc2cccc(O)c2n1)c1ccccc1 [Compound 4539-0001]
[1]; tested concentration 1.7 mM
  Solubility at tested concentrations: not soluble
[2]; [3]
  remaining activity at 1700 µM: 49%

## Oc1c(Cl)cc(Cl)c2ccc(Cl)nc12 [Compound 0422-0102]
[1]; tested concentration 2.0 mM
  Solubility at tested concentrations: not soluble
[2]; [3]
  remaining activity at 2000 µM: 99%

## O=[N+]([O-])c1cc(Cl)c2cccnc2c1O [Compound 8011-4676]
[1]; tested concentration 2.2 mM
  Solubility at tested concentrations: not soluble
[2]; [3]
  remaining activity at 2200 µM: 49%

## Cc1ccc(CS(=O)(=O)N2CCCCC2)cc1 [Compound Y300-3037]
[1]; tested concentration 2.4 mM
  Solubility at tested concentrations: not soluble
[2]; read-out: DdlB RA
  remaining activity at 2400 µM: 88%

## Cc1cc(C2CCCN2Cc2ccccc2O)on1 (centres unmarked) [Compound J006-2498]
[1]; tested concentration 2.3 mM
  Solubility at tested concentrations: not soluble
[2]; read-out: DdlB RA
  remaining activity at 2300 µM: 90%

## Cc1cc(C)c2c(=O)[nH]n(C3CCCCCC3)c2n1 [Compound 8016-0079]
[1]; tested concentration 2.3 mM
  Solubility at tested concentrations: not soluble
[2]; read-out: DdlB RA
  remaining activity at 2300 µM: 81%

## CC1CCN(S(=O)(=O)c2cnc(O)[nH]c2=O)CC1 [Compound D668-0109]
[1]; tested concentration 1.8 mM
  Solubility at tested concentrations: not soluble
[2]; [3]
  remaining activity at 1800 µM: 97%

## Cc1cc(C)cc(NC(=O)c2ccc3cccc(O)c3n2)c1 [Compound G900-0230]
[1]; tested concentration 1.7 mM
  Solubility at tested concentrations: not soluble
[2]; read-out: DdlB RA
  remaining activity at 1700 µM: 92%

## Oc1cccc2ccc(/C=C/c3ccc4c(c3)OCO4)nc12 [Compound 4896-3346]
[1]; tested concentration 1.7 mM
  Solubility at tested concentrations: not soluble
[2]; [3]
  remaining activity at 1700 µM: 139%

## CCc1cccc2c(=O)c(C(=O)O)c[nH]c12 [Compound 2595-1123]
[1]; tested concentration 2.3 mM
  Solubility at tested concentrations: not soluble
[2]; [3]
  remaining activity at 2300 µM: 47%

## COc1cccc2c1ncc1c(=O)n3cccc(O)c3nc12 [Compound 8018-0164]
[1]; tested concentration 1.7 mM
  Solubility at tested concentrations: not soluble
[2]; read-out: DdlB RA
  remaining activity at 1700 µM: 72%

## Cc1ccc(-c2csc(NC(=O)CO)n2)cc1 [Compound 8005-2972]
[1]; tested concentration 2.0 mM
  Solubility at tested concentrations: not soluble
[2]; [3]
  remaining activity at 2000 µM: 88%

## Nc1cc(Br)cc2cccnc12 [Compound 8009-3726]
[1]; tested concentration 2.2 mM
  Solubility at tested concentrations: not soluble
[2]; read-out: DdlB RA
  remaining activity at 2200 µM: 89%

## COCCNc1c(-c2ccc(C)cc2)c(=O)c1=O [Compound E470-0131]
[1]; tested concentration 2.0 mM
  Solubility at tested concentrations: not soluble
[2]; read-out: DdlB RA
  remaining activity at 2000 µM: 78%

## O=C(O)c1nccnc1C(=O)Nc1cccc(Cl)c1 [Compound C612-0847]
[1]; tested concentration 1.8 mM
  Solubility at tested concentrations: not soluble
[2]; [3]
  remaining activity at 1800 µM: 52%

## O=C(O)c1cnn2c(-c3ccc(Cl)cc3)ccnc12 [Compound 12, 7–(4-Chlorophenyl)pyrazolo[1,5-a]pyrimidine-3-carboxylic acid]
[2]; at 1 mM, read-out: DdlB inhibition, RA (Residual Activity)
  remaining activity at 1000 µM: 90%
[2]; at 5 mM, read-out: DdlB inhibition, RA (Residual Activity)
  remaining activity at 5000 µM: 0%

## O=C(Nc1ccccc1)c1nc[nH]c1C(=O)O [Compound 8011-9089]
[2]; [3]
  remaining activity at 2200 µM: 104%

## NS(=O)(=O)c1ccc(CNC(=O)c2ccncc2)cc1 [Compound Y205-1594]
[2]; read-out: DdlB RA
  remaining activity at 1700 µM: 102%

## OC1CCCc2[nH]nc(-c3ccccc3)c21 (centres unmarked) [Compound 8020-5457]
[2]; read-out: DdlB RA
  remaining activity at 2300 µM: 96%

## CC(C)N1CCC(CCC(=O)O)CC1 [FF20-1518]
[2]; read-out: DdlB RA
  remaining activity at 2500 µM: 108%

## CC1=NCCS1 [FLD187]
[2]; [4]
  remaining activity at 2500 µM: 100%

## OC1CCCc2ccccc21 (centres unmarked) [FLD077]
[2]; [4]
  remaining activity at 2500 µM: 99%

## Cc1cc(N)on1 [FLD036]
[2]; [4]
  remaining activity at 2500 µM: 97%

## O=[N+]([O-])c1cc(S(=O)(=O)O)ccc1Cl [Compound 0195-0016]
[2]; read-out: DdlB RA
  remaining activity at 2100 µM: 100%

## Cc1cc(C)nc(C)c1 [FLD167]
[2]; [4]
  remaining activity at 2500 µM: 95%

## O=C1N[C@@H](c2ccccc2)CO1 [FLD127]
[2]; [4]
  remaining activity at 2500 µM: 99%

## OC12CC3CC(C1)CC(NCc1cccnc1)(C3)C2 [Compound 8020-0633]
[2]; read-out: DdlB RA
  remaining activity at 1800 µM: 92%

## O=C(O)c1n[nH]c2ccccc12 [FLD005]
[2]; [4]
  remaining activity at 2500 µM: 97%

## CN(C)S(=O)(=O)Cc1ccccc1F [Compound Y300-2671]
[2]; read-out: DdlB RA
  remaining activity at 2500 µM: 95%

## O=C(O)CCCn1cnc2ccc([N+](=O)[O-])cc2c1=O [Compound Y044-6460]
[2]; [5]
  remaining activity at 1800 µM: 63%

## CCn1cc(C(=O)Nc2ccccc2C(=O)O)cn1 [Compound Y501-0105]
[2]; [3]
  remaining activity at 1900 µM: 88%

## O=C1CCC2(CCN(S(=O)(=O)c3ccccc3)C2)N1 (centres unmarked) [Compound S914-0001]
[2]; [3]
  remaining activity at 2100 µM: 101%

## O=C(N/N=C/c1ccc2cccc(O)c2n1)c1ccco1 [Compound 8006-5465]
[1]; tested concentration 1.8 mM
  Solubility at tested concentrations: not soluble
[2]; [3]
  remaining activity at 1800 µM: 72%

## CCS(=O)(=O)Nc1c(C)cc(C)cc1C [Compound Y202-7340]
[2]; read-out: DdlB RA
  remaining activity at 2400 µM: 90%

## CC(=O)Nc1cc(-n2cnnc2)ccc1C(=O)O [Compound 8020-0076]
[2]; [3]
  remaining activity at 2000 µM: 97%

## Cc1nc(-c2ccncc2)sc1C(=O)O [FLD024]
[2]; [4]
  remaining activity at 2500 µM: 96%

## CN(C)Cc1cc2cc(O)c(-c3cccnc3)cc2n1C [Compound H027-0236C]
[2]; residual activity, tested concentration 1.6 mM, read-out: DdlB RA
  remaining activity at 1600 µM: 84%

## O=C(O)CCC(=O)N1CCO[C@H](c2ccccc2)C1 [Compound Y044-6579]
[2]; [5]
  remaining activity at 1900 µM: 93%

## Cc1cccc(OCC(=O)NC(C)C(=O)O)c1 (centres unmarked) [Compound 1683-0903]
[2]; read-out: DdlB RA
  remaining activity at 2100 µM: 98%
